In patent publication US9987276B2 (Celgene CAR LLC, priority 2008, dated 2018):
Where two headings read alike, the source gives them in different places.

What was measured:
[1] = molecular target: ITK (Homo sapiens (Human), UniProt Q08881); experiment: Omnia assay for potency assessment against active forms of ITK kinase; type: biochemical; settings: [ITK]=10 nM, [ATP]=25, [Y6-Sox]=10 μM; read-out: ITK Inhibition
Experimental: [ITK]=10 nM, [ATP]=25 [Y6-Sox]=10 μM (ATP KMapp=33 μM).

[2] = molecular target: EGFR-WT (Homo sapiens (Human), UniProt P00533); experiment: Omnia assay for potency assessment against EGFR (WT)
Chain of EGFR-WT (P00533 668-1210): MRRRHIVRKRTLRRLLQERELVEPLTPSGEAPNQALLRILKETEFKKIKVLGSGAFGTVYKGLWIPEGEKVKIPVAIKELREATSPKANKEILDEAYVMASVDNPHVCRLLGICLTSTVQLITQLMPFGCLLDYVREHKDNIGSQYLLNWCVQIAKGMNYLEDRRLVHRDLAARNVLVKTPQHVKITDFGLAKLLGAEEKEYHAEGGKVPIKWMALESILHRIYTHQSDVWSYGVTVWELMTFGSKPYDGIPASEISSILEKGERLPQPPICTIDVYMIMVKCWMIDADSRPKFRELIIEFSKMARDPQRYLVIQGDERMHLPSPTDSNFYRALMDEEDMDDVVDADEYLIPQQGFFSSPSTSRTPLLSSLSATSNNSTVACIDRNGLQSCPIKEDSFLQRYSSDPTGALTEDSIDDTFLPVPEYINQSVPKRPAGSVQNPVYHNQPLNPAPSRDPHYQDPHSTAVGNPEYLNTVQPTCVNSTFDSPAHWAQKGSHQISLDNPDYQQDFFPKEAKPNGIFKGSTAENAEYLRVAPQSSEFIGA

[3] = molecular target: T1, BTK (Homo sapiens (Human), UniProt Q06187); experiment: Omnia assay for potency assessment against BTK; type: biochemical; settings: [BTK]=5 nM, Omnia assay; read-out: BTK Inhibition (IC50)
T1 sequence (Q06187 whole entry): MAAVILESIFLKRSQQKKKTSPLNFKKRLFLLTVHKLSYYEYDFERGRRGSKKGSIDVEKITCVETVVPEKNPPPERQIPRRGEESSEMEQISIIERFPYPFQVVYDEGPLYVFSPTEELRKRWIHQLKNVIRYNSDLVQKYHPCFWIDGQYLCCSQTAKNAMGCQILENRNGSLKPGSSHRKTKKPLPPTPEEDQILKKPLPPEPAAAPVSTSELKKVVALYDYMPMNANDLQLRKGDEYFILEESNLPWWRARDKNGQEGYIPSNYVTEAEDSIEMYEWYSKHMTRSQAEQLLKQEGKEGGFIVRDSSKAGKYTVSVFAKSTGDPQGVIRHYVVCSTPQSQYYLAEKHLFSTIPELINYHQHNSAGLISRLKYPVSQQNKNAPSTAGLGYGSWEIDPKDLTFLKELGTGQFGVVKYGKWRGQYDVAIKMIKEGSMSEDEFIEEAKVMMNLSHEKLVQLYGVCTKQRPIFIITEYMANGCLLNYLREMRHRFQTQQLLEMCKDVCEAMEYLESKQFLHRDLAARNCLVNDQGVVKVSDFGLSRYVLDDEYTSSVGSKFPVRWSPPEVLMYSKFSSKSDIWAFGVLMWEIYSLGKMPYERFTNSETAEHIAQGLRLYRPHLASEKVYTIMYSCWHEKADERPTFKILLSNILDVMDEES
Experimental: The modified BTK-optimized reagent conditions for the above protocol are:
[BTK]=5 nM, [ATP]=[…], [Y5-Sox]=[…] (ATP KMapp˜[…]).

[4] = molecular target: T1, BTK; experiment: BTK Ramos cellular assay (PLCγ2 phosphorylation); type: cell-based; settings: Ramos cells, 1 hour compound, anti-IgM stimulation, p-PLCγ2; read-out: BTK Inhibition (IC50), BTK Ramos cellular inhibition
Experimental: Ramos cells were grown in suspension in T225 flasks, spun down, resuspended in 50 ml serum-free media and incubated for 1 hour. […] Ramos cells were incubated with compound for 1 hour, washed again and resuspended in 100 ul serum-free media. Cells were then stimulated with 1 μg of goat F(ab′)2 Anti-Human IgM and incubated on ice for 10 minutes to activate B cell receptor signaling pathways. After 10 minutes, the cells were washed once with PBS and then lysed on ice with Invitrogen Cell Extraction buffer. 16 μg total protein from lysates were loaded on gel and blots were probed for phosphorylation of the BTK substrate PLCγ2.

[5] = read-out: EGFR (wild type inhibition), EGFR wild type

Chain of ITK (Q08881 whole entry): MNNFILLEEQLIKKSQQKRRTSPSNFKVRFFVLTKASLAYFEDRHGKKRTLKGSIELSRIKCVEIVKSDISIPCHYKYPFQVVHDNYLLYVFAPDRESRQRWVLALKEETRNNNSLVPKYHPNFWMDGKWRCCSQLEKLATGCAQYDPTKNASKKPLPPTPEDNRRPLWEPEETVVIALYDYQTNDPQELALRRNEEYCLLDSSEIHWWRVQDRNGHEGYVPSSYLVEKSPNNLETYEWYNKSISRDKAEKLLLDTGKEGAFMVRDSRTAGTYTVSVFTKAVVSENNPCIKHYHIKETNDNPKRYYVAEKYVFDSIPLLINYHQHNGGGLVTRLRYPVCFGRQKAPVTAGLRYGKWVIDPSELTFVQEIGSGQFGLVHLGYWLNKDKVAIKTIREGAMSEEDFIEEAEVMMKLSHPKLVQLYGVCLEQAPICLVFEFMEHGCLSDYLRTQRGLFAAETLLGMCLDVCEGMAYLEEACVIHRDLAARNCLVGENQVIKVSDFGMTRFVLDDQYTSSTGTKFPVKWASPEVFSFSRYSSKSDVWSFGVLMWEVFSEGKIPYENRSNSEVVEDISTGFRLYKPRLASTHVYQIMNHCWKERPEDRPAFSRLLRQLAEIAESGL

Row | Compound | IC50 [1] | IC50 [2, 5] | IC50 [3] | IC50 [4] | IC50 [2]
1 | C=CC(=O)Nc1cccc(Nc2nc(Nc3cccc(OCC4CCCN(C)C4)c3)ncc2F)c1 (stereo not drawn) [Compound I-76, N-(3-(5-fluoro-2-(3-((1-methylpiperidin-3-yl)methoxy)phenylamino)pyrimidin-4-ylamino)phenyl)-acrylamide] | < 10 nM | < 10 nM | < 10 nM | – | –
2 | C=CC(=O)Nc1cccc(Nc2nc(Nc3ccc(OCc4ccccn4)c(Cl)c3)ncc2F)c1 [Compound I-86, N-(3-(2-(3-chloro-4-(pyridin-2-ylmethoxy)phenylamino)-5-fluoropyrimidin-4-ylamino)phenyl)acrylamide] | – | 1000 to 10000 nM | < 10 nM | < 10 nM | –
3 | C=CC(=O)Nc1cc(Nc2nc(Nc3ccc(OCCOC)cc3)ncc2F)ccc1F [Compound I-87, N-(2-fluoro-5-(5-fluoro-2-(4-(2-methoxyethoxy)phenylamino)pyrimidin-4-ylamino)phenyl)acrylamide] | – | – | < 10 nM | < 10 nM | 10 to 100 nM
4 | COCCOc1ccc(Nc2ncc(F)c(Nc3cccc(NC(=O)/C=C/CN4CC[C@H](O)C4)c3)n2)cc1 [Compound I-88, (S,E)-N-(3-(5-fluoro-2-(4-(2-methoxyethoxy)phenylamino)pyrimidin-4-ylamino)phenyl)-4-(3-hydroxypyrrolidin-1-yl)but-2-enamide] | 10 to 100 nM | – | < 10 nM | – | 10 to 100 nM
5 | COCCOc1ccc(Nc2ncc(F)c(Nc3cccc(NC(=O)/C=C/CN4CC[C@@H](O)C4)c3)n2)cc1 [Compound I-89, (R,E)-N-(3-(5-fluoro-2-(4-(2-methoxyethoxy)phenylamino)pyrimidin-4-ylamino)phenyl)-4-(3-hydroxypyrrolidin-1-yl)but-2-enamide] | 10 to 100 nM | – | < 10 nM | – | 10 to 100 nM
6 | C=CC(=O)Nc1cccc(Nc2nc(Nc3ccc(OCC4CCN(C)CC4)cc3)ncc2F)c1 [Compound I-90, N-(3-(5-fluoro-2-(4-((1-methylpiperidin-4-yl)methoxy)phenylamino)pyrimidin-4-ylamino)phenyl)acrylamide] | < 10 nM | < 10 nM | < 10 nM | – | –
7 | C=CC(=O)Nc1cccc(Nc2nc(Nc3cccc(OC(C)(C)CO)c3)ncc2F)c1 [Compound I-91, N-(3-(5-fluoro-2-(3-(1-hydroxy-2-methylpropan-2-yloxy)phenylamino)pyrimidin-4-ylamino)phenyl)acrylamide] | 10 to 100 nM | – | < 10 nM | – | 10 to 100 nM
8 | C=CC(=O)N1CCc2ccc(Nc3nc(Nc4ccc(OCCOC)cc4)ncc3F)cc21 [Compound I-94, 1-(6-(5-fluoro-2-(4-(2-methoxyethoxy)phenylamino)pyrimidin-4-ylamino)indolin-1-yl)prop-2-en-1-one] | 10 to 100 nM | – | < 10 nM | – | 100 to 1000 nM
9 | C=CC(=O)Nc1cccc(Nc2nc(Nc3ccc4c(cnn4C)c3)ncc2F)c1 [Compound I-155] | < 10 nM | < 10 nM | < 10 nM | – | –
10 | C=CC(=O)Nc1cccc(Nc2nc(Nc3cccc(OCCCNC(=O)OC(C)(C)C)c3)ncc2F)c1 [Compound I-183, tert-butyl 3-(3-(4-(3-acrylamidophenylamino)-5-fluoropyrimidin-2-ylamino)phenoxy)propylcarbamate] | 100 to 1000 nM | 1000 to 10000 nM | < 10 nM | – | –
11 | C=C(C)C(=O)c1cccc(Nc2nc(Nc3cccc(OC(F)(F)F)c3)ncc2F)c1 [Compound I-199, 1-(3-(5-fluoro-2-(3-(trifluoromethoxy)phenylamino)pyrimidin-4-ylamino)phenyl)-2-methylprop-2-en-1-one] | 10 to 100 nM | – | < 10 nM | – | 10 to 100 nM
12 | C=CC(=O)Nc1cccc(Oc2nc(Nc3cccc(OC)c3)ncc2C(=O)Nc2ccccc2)c1 [Compound I-200, 4-(3-acrylamidophenoxy)-2-(3-methoxyphenylamino)-pyrimidine-5-carboxylic acid phenylamide] | > 10000 nM | < 10 nM | < 10 nM | – | –
13 | C=CC(=O)Nc1cccc(Nc2nc(Nc3cccc(OCCCNC(=O)CCCC(=O)NCCCOCCOCCOCCCNC(=O)CCCC[C@H]4SC[C@H]5NC(=O)N[C@H]54)c3)ncc2C)c1 [Compound I-215, N^1-(3-(3-(4-(3-acrylamidophenylamino)-5-methylpyrimidin-2-ylamino)phenoxy)propyl)-N^5-(15-oxo-19-((3aR,4R,6aS)-2-oxohexahydro-1H-thieno[3,4-d]imidazol-4-yl)-4,7,10-trioxa-14-azanonadecyl)glutaramide] | 10 to 100 nM | – | < 10 nM | – | 10 to 100 nM
14 | C=CC(=O)Nc1cccc(Nc2nc(Nc3cccc(OCCCNC(=O)CCCC[C@@H]4SC[C@@H]5NC(=O)N[C@@H]54)c3)ncc2C)c1 [Compound I-237, N-(3-(3-(4-(3-acrylamidophenylamino)-5-methylpyrimidin-2-ylamino)phenoxy)propyl)-5-((3aS,4S,6aR)-2-oxohexahydro-1H-thieno[3,4-d]imidazol-4-yl)pentanamide] | < 10 nM | – | < 10 nM | – | 10 to 100 nM
15 | C=C(C)C(=O)c1cccc(Nc2nc(Nc3ccc(OCCOC)c(F)c3)ncc2F)c1 [Compound I-322, 1-(3-(5-fluoro-2-(3-fluoro-4-(2-methoxyethoxy)phenylamino)pyrimidin-4-ylamino)phenyl)-2-methylprop-2-en-1-one] | < 10 nM | – | < 10 nM | – | 10 to 100 nM
16 | C=C(C)C(=O)c1ccc(Nc2nc(Nc3ccc(OCCOC)c(F)c3)ncc2F)cc1 [Compound I-324, 1-(4-(5-fluoro-2-(3-fluoro-4-(2-methoxyethoxy)phenylamino)pyrimidin-4-ylamino)phenyl)-2-methylprop-2-en-1-one] | < 10 nM | – | < 10 nM | – | 10 to 100 nM
17 | C=C(C)C(=O)Cc1ccc(Nc2nc(Nc3ccc(OCCOC)c(F)c3)ncc2F)cc1 [Compound I-329, 1-(4-(5-fluoro-2-(3-fluoro-4-(2-methoxyethoxy)phenylamino)pyrimidin-4-ylamino)phenyl)-3-methylbut-3-en-2-one] | < 10 nM | – | < 10 nM | – | 10 to 100 nM
18 | C=CC(=O)Nc1cccc(Nc2nc(Nc3ccc(OC(C)CO)c(F)c3)ncc2F)c1 (stereo not drawn) [Compound I-333, N-(3-(5-fluoro-2-(3-fluoro-4-(1-hydroxypropan-2-yloxy)phenylamino)pyrimidin-4-ylamino)phenyl)acrylamide] | 10 to 100 nM | – | < 10 nM | – | 10 to 100 nM
19 | C=CC(=O)Nc1cccc(Nc2nc(Nc3ccc(Cl)c(OC(C)(C)CO)c3)ncc2F)c1 [Compound I-336, N-(3-(2-(4-chloro-3-(1-hydroxy-2-methylpropan-2-yloxy)phenylamino)-5-fluoropyrimidin-4-ylamino)phenyl)acrylamide] | 100 to 1000 nM | – | < 10 nM | – | 100 to 1000 nM
20 | C=CC(=O)Nc1cccc(Nc2nc(Nc3ccc(Cl)c(OC(C)CO)c3)ncc2F)c1 (stereo not drawn) [Compound I-337, N-(3-(2-(4-chloro-3-(1-hydroxypropan-2-yloxy)phenylamino)-5-fluoropyrimidin-4-ylamino)phenyl)acrylamide] | 10 to 100 nM | – | < 10 nM | – | 10 to 100 nM
21 | C=CC(=O)Nc1cccc(Nc2nc(Nc3ccc(Cl)c(OCC(O)CO)c3)ncc2F)c1 (stereo not drawn) [Compound I-353, N-(3-(2-(4-chloro-3-(2,3-dihydroxypropoxy)phenylamino)-5-fluoropyrimidin-4-ylamino)phenyl)acrylamide] | 10 to 100 nM | – | < 10 nM | – | 10 to 100 nM
22 | C=CC(=O)Nc1cccc(Nc2nc(Nc3ccc(Cl)c(O[C@H]4CCOC4)c3)ncc2F)c1 [Compound I-354, (S)—N-(3-(2-(4-chloro-3-(tetrahydrofuran-3-yloxy)phenylamino)-5-fluoropyrimidin-4-ylamino)phenyl)acrylamide] | 100 to 1000 nM | – | < 10 nM | – | 100 to 1000 nM
23 | C=CC(=O)Nc1cccc(Nc2nc(Nc3ccc(OC[C@@H]4C[C@@H](O)CN4)c(F)c3)ncc2F)c1 [Compound I-355] | 10 to 100 nM | – | < 10 nM | – | 10 to 100 nM
24 | C=CC(=O)Nc1cccc(Nc2nc(Nc3ccc(OCCOCCNC(=O)OC(C)(C)C)c(F)c3)ncc2F)c1 [Compound I-356, tert-butyl 2-(2-(4-(4-(3-acrylamidophenylamino)-5-fluoropyrimidin-2-ylamino)-2-fluorophenoxy)ethoxy)ethylcarbamate] | 10 to 100 nM | – | < 10 nM | – | 100 to 1000 nM
25 | C=CC(=O)Nc1cccc(Nc2nc(Nc3ccc(Cl)c(O[C@@H](C)CO)c3)ncc2F)c1 [Compound I-357, (S)—N-(3-(2-(4-chloro-3-(1-hydroxypropan-2-yloxy)phenylamino)-5-fluoropyrimidin-4-ylamino)phenyl)acrylamide] | 10 to 100 nM | – | < 10 nM | – | 100 to 1000 nM
26 | C=CC(=O)Nc1cccc(Nc2nc(Nc3ccc(OCCOCCOC)c(F)c3)ncc2F)c1 [Compound I-359, N-(3-(5-fluoro-2-(3-fluoro-4-(2-(2-methoxyethoxy)ethoxy)-phenylamino)pyrimidin-4-ylamino)phenyl)acrylamide] | < 10 nM | – | < 10 nM | – | 10 to 100 nM
